Source: US20130123248A1, “PHARMACOLOGICAL MODULATION OF POSITIVE AMPA RECEPTOR MODULATOR EFFECTS ON NEUROTROPHIN EXPRESSION” (The Regents of the University of California, priority 2006, published 2013)
Entries after “also recorded” stand apart in the source; their conditions may differ.

Assays:
[1] = test system: GluR2 mRNA; experiment: GluR2 mRNA in situ hybridization in hippocampal slice cultures; format: cell-based, rat; details: 48 h
[2] = test system: mature BDNF protein; experiment: Western blot for mature BDNF protein in organotypic hippocampal cultures; format: cell-based, rat; details: 24 h; CX614 50 μM
Experimental: Cultured hippocampal slices were prepared from rat pups (9 d postnatal) essentially as described by Lauterborn et al. (Lauterborn et al., 2000, J Neurosci 20(1):8-21). Slices were explanted onto Millicel-CM biomembrane inserts (Millipore, Bedford, Mass.; 6 slices/membrane) in a 6-well culture cluster plate (Corning, Cambridge, Mass.) containing sterile media (1 ml/well) consisting of minimum essential media, 30 mM dextrose, 30 mM HEPES, 5 mM Na2HCO3, 3 mM glutamine, 0.5 mM ascorbic acid, 2 mM CaCl2, 2.5 mM MgSO4, 1 mg/l insulin and 20% horse serum (pH 7.2; all reagents from Sigma, St. Louis, Mo.) and maintained for 10-18 d in a humidified incubator at 37° C. in 5% CO2. Media was changed three times/week. […]
For protein determinations, drug-treated and vehicle-treated hippocampal slice cultures were homogenized in RIPA (Radio-Immunoprecipitation Assay) buffer containing 10 mM Tris, pH 7.2, 158 mM NaCl, 1 mM EDTA, 0.1% SDS, 1% sodium deoxycholate, 1% triton-X, Complete Protease Inhibitor Cocktail (Roche Diagnostics; Indianapolis, Ind.), and Phosphatase Inhibitor Cocktails 1 and 2 (P2850 and 5726, Sigma), normalized for protein content using the Bio-Rad protein assay, and analyzed by Western blot analysis. […] Binding of anti-BDNF antibodies to BDNF was detected by enhanced chemiluminescence. Band densities were quantified using ImageQuant software (Molecular Dynamics, Sunnyvale, Calif.). […]

[3] = test system: GluR1 mRNA; experiment: GluR1 mRNA in situ hybridization in hippocampal slice cultures; format: cell-based, rat; details: 48 h
[4] = test system: BDNF mRNA; experiment: BDNF mRNA in situ hybridization in cultured rat hippocampal slices; format: cell-based; details: for hybridization to BDNF mRNA, principal hippocampal cell layers, entorhinal cortex, neocortex: CX614 50 μM
Experimental: Cultured hippocampal slices were prepared from rat pups (9 d postnatal) essentially as described by Lauterborn et al. (Lauterborn et al., 2000, J Neurosci 20(1):8-21). Slices were explanted onto Millicel-CM biomembrane inserts (Millipore, Bedford, Mass.; 6 slices/membrane) in a 6-well culture cluster plate (Corning, Cambridge, Mass.) containing sterile media (1 ml/well) consisting of minimum essential media, 30 mM dextrose, 30 mM HEPES, 5 mM Na2HCO3, 3 mM glutamine, 0.5 mM ascorbic acid, 2 mM CaCl2, 2.5 mM MgSO4, 1 mg/l insulin and 20% horse serum (pH 7.2; all reagents from Sigma, St. Louis, Mo.) and maintained for 10-18 d in a humidified incubator at 37° C. in 5% CO2. Media was changed three times/week. All experiments with the […]® (Cortex Pharmaceuticals) and mGluR5 antagonist (gift from FRAXA Research Foundation) began on days 11-12 in culture and were performed essentially as described by Lauterborn et al. (Lauterborn et al., 2000, J Neurosci 20(1):8-21) and Huber et al. (Huber et al., 2002, Proc Natl Acad Sci USA 99(11):7746-50). […]® were dissolved in 100% dimethylsulfoxide (DMSO; Sigma) and stored at -20° C. MPEP was dissolved in 100% DMSO. […] For controls, cultures were either untreated or treated with equivalent concentrations of vehicle (i.e., DMSO at final concentrations of 1:2,000-1:10,000). […] The cRNA to BDNF exon V was generated from PvuII-digested recombinant plasmid pRl 112-8 (Isackson et al., 1991, Neuron 6:937-948), yielding a 540 base length probe with 384 bases complementary to BDNF exon V-containing mRNA (Timmusk et al., 1993, Neuron 10:475-489). In situ hybridization was performed essentially as described by Lauterborn et al. (Lauterborn et al., 2000, J Neurosci 20(1):8-21; Lauterborn et al., 1994, Mol Cell Neurosci 5:46-62). Briefly, for in situ hybridization analyses, treatments were terminated by slice fixation with 4% paraformaldehyde in 0.1 M phosphate buffer, pH 7.2 (PPB). Cultures were re-sectioned parallel to the broad explant surface, slide-mounted, and processed for the in situ hybridization localization of BDNF mRNA using the ^35S-labeled BDNF cRNA probe described above. Following hybridization, the tissue was processed for film (Kodak Biomax) autoradiography. Quantification of in situ hybridization was performed essentially as described by Lauterborn et al. (Lauterborn et al., 2000, J Neurosci 20(1):8-21). Briefly, for quantification of in situ hybridization, hybridization densities were measured from film autoradiograms, with labeling densities calibrated relative to film images of ^14C-labeled standards (μCi/g), using the AIS system (Imaging Research Inc.). Significance was determined using the two-way ANOVA followed by Student-Newman-Keuls (SNK) or Student's t tests for individual comparisons.

[5] = test system: rat fear-potentiated startle model of anxiety; details: cited from earlier work
[6] = biological target: mGluR5 (Homo sapiens, UniProt P41594); details: cited from earlier work
Sequence of mGluR5 (P41594 21-1212): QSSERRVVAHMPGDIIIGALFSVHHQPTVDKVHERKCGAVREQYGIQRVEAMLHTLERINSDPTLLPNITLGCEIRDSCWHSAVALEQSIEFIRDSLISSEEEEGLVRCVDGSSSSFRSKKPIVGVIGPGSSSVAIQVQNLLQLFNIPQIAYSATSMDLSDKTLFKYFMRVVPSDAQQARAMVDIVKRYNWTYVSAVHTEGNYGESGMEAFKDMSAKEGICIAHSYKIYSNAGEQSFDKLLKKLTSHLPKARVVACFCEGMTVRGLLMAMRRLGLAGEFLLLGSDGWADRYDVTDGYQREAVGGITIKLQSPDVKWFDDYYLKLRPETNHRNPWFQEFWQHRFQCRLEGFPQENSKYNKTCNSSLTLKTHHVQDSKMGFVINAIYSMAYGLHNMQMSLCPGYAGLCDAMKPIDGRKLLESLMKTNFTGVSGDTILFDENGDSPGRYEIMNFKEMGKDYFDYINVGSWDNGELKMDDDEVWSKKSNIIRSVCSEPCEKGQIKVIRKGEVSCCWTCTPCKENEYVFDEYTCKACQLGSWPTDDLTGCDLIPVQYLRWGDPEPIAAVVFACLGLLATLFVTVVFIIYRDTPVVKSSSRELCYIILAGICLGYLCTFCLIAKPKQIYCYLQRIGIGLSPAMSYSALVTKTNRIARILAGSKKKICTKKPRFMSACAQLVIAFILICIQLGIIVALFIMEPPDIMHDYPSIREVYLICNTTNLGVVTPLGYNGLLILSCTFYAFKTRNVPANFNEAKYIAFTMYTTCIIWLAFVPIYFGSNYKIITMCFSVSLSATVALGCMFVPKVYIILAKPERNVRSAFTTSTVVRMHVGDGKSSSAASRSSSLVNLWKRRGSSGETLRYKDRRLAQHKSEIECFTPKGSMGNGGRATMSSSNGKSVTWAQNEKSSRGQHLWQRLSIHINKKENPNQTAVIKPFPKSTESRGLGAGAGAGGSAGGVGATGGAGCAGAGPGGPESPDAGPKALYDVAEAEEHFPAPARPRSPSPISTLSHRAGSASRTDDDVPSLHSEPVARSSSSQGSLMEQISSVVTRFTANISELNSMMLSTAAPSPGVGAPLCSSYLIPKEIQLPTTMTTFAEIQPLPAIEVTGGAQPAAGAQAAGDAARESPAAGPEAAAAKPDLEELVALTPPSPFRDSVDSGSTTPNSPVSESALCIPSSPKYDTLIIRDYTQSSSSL

[7] = CX614 (20 μM in FIG. 6 legend, 50 μM in Example 6), MPEP 50 μM or both

O=C1c2cc3c(cc2OC2CCCN12)OCCO3 (stereo not shown) [CX614, 2H,3H,6aH-pyrrolidino[2″,1″-3′,2′]1,3-oxazino[6′,5′-5,4]benzo[e]1,4-dioxan-10-one]
reduction of GluR2 mRNA levels, CA1 stratum pyramidale ([1]; CX614 20 μM (FIG. 6 legend)): ~50%
reduction of GluR2 mRNA levels, CA1 pyramidal cell layer, compared to control ([1]; CX614 50 μM (Example 6)): 40-45%
mature BDNF protein levels above control levels [2]: 133%
reduction of GluR1 mRNA levels, CA1 stratum pyramidale ([3]; CX614 20 μM (FIG. 6 legend)): 40%
reduction of GluR1 mRNA levels, CA1 pyramidal cell layer, compared to control ([3]; CX614 50 μM (Example 6)): 40-45%
BDNF cRNA labeling, granule cells ([4]; 3 h, 10 μM CX614): modest increase
BDNF mRNA levels in CA1 stratum pyramidale, effect in words ([4]; 3 h, CX614 50 μM with or without MPEP 50 μM): small but non-significant increased
increase in BDNF mRNA, hippocampal granule cells (stratum granulosum) ([4]; 3 h, CX614 50 μM with or without MPEP 50 μM, vs control): 6.5 fold
BDNF mRNA, granule cells ([4]; 3 h, CX614 10, 20 or 50 μM): increased by all three doses
BDNF mRNA, pyramidal cells of CA1 and CA3 ([4]; 3 h, CX614 10, 20 or 50 μM): only increased with the 50 μM concentration; also recorded: only 50 μM CX614 elicited significant increases
BDNF cRNA labeling, granule cells ([4]; 3 h, higher doses of CX614 (20, 50 μM)): more dramatic increases
BDNF mRNA levels, CA1 pyramidal cells ([4]; 24 h, CX614 20 μM with or without MPEP 50 μM): small but non-significant increase
hybridization to BDNF mRNA, principal hippocampal cell layers, entorhinal cortex, neocortex ([4]; 6 h): increased; also recorded: markedly elevated
hybridization to BDNF mRNA, principal hippocampal cell layers, entorhinal cortex, neocortex ([4]; 24 h continuous treatment): still elevated above control densities; also recorded: begin to decline

Cc1cccc(C#Cc2ccccc2)n1 [MPEP, 2-methyl-6-(phenylethynyl)pyridine]
GluR2 mRNA levels, CA1, effect in words [1, 7]: no significant effect; also recorded: small but non-significant increase
GluR1 mRNA levels, CA1, effect in words [3, 7]: no significant effect
BDNF mRNA levels in the granule cell layer / any field, effect in words ([4]; 3 h, MPEP 50 μM alone): unaffected; also recorded: no effect in any field

Cc1nc(C#Cc2cccnc2)cs1 [MTEP, 3-[(2-methyl-1,3-thiazol-4-yl)ethynyl]pyridine]
potency relative to MPEP [5]: 5 fold

C=Cc1cncc(C#Cc2csc(C)n2)c1 [Iso et al. compound 59, 3-[(2-methyl-4-thiazoly)ethynyl]-5-vinylpyridine]
antagonistic potency relative to MTEP [6]: 230 times
